Measured values reported in PMC3163001 (Organic letters, 2011).

Target: SylD-CA (Pseudomonas syringae, UniProt Q83Y48)
Assay: ATP-PPi radioactivity exchange assay
Format: biochemical
Conditions: reversible adenylation

Row | Compound | ATP-PPi radioactivity exchange assay (preferred substrate of the A domain) | ATP-PPi radioactivity exchange assay
1 | NCC/C=C/[C@H](N)C(=O)O [L-3,4-dehydrolysine] | As expected L-3,4-dhl was preferentially reversibly adenylated | –
2 | NCCCC[C@H](N)C(=O)O [L-lysine] | – | L-lysine was reversibly adenylated at a much slower rate
